Measurements published in patent US20170368120A1, “Use of compositions of water/alcohol extracts of Antrodia cinnamomea cut-log wood cultivated fruiting body and solid-state cultivated mycelium as auxiliaries for anti-cancer agents” (Taiwan Leader Biotech Corp, priority 2016, published 2017).

Key:
[1] = test system: Human gastric cancer MKN-45 cells; assay: Auxiliary effect on 5-FU in MKN-45 tumor-bearing nude mice; assay type: in vivo, Balb/c nu/nu mice; settings: 5-FU alone 25 mg/kg ip three times a week
Method: In this example, the auxiliary effect of the A. cinnamomea composition on the anti-tumor agent 5-FU was confirmed in an animal model. Balb/c nu/nu mice of six-week old, purchased from the National Laboratory Animal Center, were used in the test. The 5-FU (25 mg/kg, ip) treated group was used as positive group, with drug administration frequency of three times a week. The A. cinnamomea composition (L) of solid-state cultivated mycelium water/alcohol extract and cut-log wood cultivated fruiting body water/alcohol extract was orally administered to mice once a day with following dosages: 1× dose of 680 mg/kg, 0.5× dose of 340 mg/kg, 0.25× dose of 170 mg/kg and 0.125× dose of 85 mg/kg. If the mice had been injected with 5-FU, the L was orally treated four hours after the application of 5-FU. Human gastric cancer MKN-45 cells (3×10^6) were implanted into immune deficient nude mice, and the drug administration was started when the tumor size reached to 100˜200 mm^3. The tested animal groups included the control, 5-FU, 5FU+L, 5-FU+0.5L, 5-FU+0.25L and 5-FU+0.125L groups, with 8 mice in each group.

CFU-GM in bone marrow = assay: CFU-GM colony test in bone marrow of 5-FU treated mice; assay type: in vivo, C57BL/6 mice; settings: 5-FU alone 200 mg/kg ip at first day; marrow at day 11
Method: (§1) The effect of the A. cinnamomea composition (L) on recovering the blood cell reducing caused by the application of chemotherapy drug 5-FU was evaluated in the colony test of CFU-GM in bone marrow. C57BL/6 mice of eight-week old, purchased from the National Laboratory Animal Center, were used in the test. The tested animal groups included the control, 5-FU, 5FU+L, 5-FU+0.5L, 5-FU+0.25L and 5-FU+Angiotensin II (Aii) groups, with 6 mice in each group. After the intraperitoneal injection of 5-FU (200 mg/kg) at first day, the test drug A. cinnamomea composition (L) was orally administered to the animals, or the positive control drug Angiotensin II (Aii, 100 μg/kg) was intraperitoneally injected to the animals at day 4˜10. Dosages of the A. cinnamomea composition (L) were used as follow: 1× dose of 680 mg/kg, 0.5× dose of 340 mg/kg and 0.25× dose of 170 mg/kg. Whole blood was collected from cheek before sacrificing the animals at day 11, and the Complete Blood Count (CBC) was performed to record the number of blood cells, including white blood cells, red blood cells, lymphocytes and neutrophils in peripheral blood. The femur was removed from the sacrificed mouse at day 11 of the experiment. The bone marrow cells were collected for the cultivation of CFU-GM. Cells was cultured for 7 days, and the number of CFU-GM colonies was counted.

[2] = test system: MKN45 gastric cancer cells; assay: Gastric tumor growth in MKN45 tumor-bearing nude mice; assay type: in vivo; settings: 5-FU injection
Source text: In this example, the effects of the A. cinnamomea composition of solid-state cultivated mycelium water/alcohol extracts and cut-log wood cultivated fruiting body water/alcohol extracts on gastric tumor growth were further evaluated in an animal model. The test A. cinnamomea compositions included 5% FB/95% SC, 10% FB/90% SC, 20% FB/80% SC, and 40% FB/60% SC, respectively. The animal used in the experiment is an immune deficient mouse (nude mice) implanted MKN45 gastric cancer cells. 10 days after the cancer cell implantation, the animals were orally given the tested A. cinnamomea compositions (300 mg/kg/day) by oral gavage for 21 days. The treated animals were scarified. The tumor was isolated and weighted, as the key indicator for assessing the inhibition of tumor growth.

[3] = test system: blood cells in peripheral blood; assay: Complete Blood Count in 5-FU treated mice; assay type: in vivo, C57BL/6 mice; settings: 5-FU alone 200 mg/kg ip, compared to control
Method: as §1

Compound: O=c1[nH]cc(F)c(=O)[nH]1 [5-FU, 5-fluorouracil]
- tumor weight [1]: 0.85 g
- CFU-GM colony number (CFU-GM in bone marrow): 1,869 colonies/10^6 marrow cells
- tumor weight [2]: significant decrease in tumor weight
- number of lymphocytes [3]: significantly reduced
- number of neutrophils [3]: significantly reduced
- number of red blood cells [3]: significantly reduced
- number of white blood cells [3]: significantly reduced
